The values that follow come from patent US20200370022A1, “MALIGNANT HEMATOPOIETIC CELL MICROCOMPARTMENT AND METHOD FOR PREPARING SUCH A MICROCOMPARTMENT” (UNIVERSITE DE BORDEAUX, priority 2017, published 2020).

In the experiment the test system is DLBCL SUDHL4 cells. Put plainly: CellTiter-Glo 3D cell viability (intracellular ATP) after 48 h drug treatment, 2D suspension vs 3D microcompartments. As to conditions: Homo sapiens, SU-DHL-4, 48 h. The format is cell-based. As for the experimental part: FIG. 11: Comparison of the cytotoxic effects of doxorubicin and of etoposide on DLBCL SUDHL4 cells grown in 2D (suspension) or in 3D ± ECM ± Resto. Cells or spheroids at D7 post-encapsulation are treated for 48 h with drugs. At the end of the treatment, cell viability is measured using the CellTiter-Glo® 3D Cell Viability Assay Kit (Promega).
As shown above, drug diffusion is altered in the 3D structures according to the invention. The purpose of the present experiment is to verify whether this alteration is correlated with chemoresistance. For this purpose, the efficacy of two conventional chemotherapies (doxorubicin and etoposide) was tested in parallel on cells grown in suspension (2D) and on cell clusters from cellular microcompartments according to the invention, containing lymphomatous cells alone or in the presence of ECM, with or without Resto stromal cells, treated with increasing concentrations of these chemotherapy molecules.
After 48 h of incubation, cell survival was assessed by measuring intracellular ATP using the CellTiter-Glo® 3D Cell Viability Assay Kit (Promega).

[1] abbreviates: 3D (lymphomatous cells alone), SUDHL4, D7 post-encapsulation, 48 h.
Setting [2] is: 3D + ECM + Resto, SUDHL4, D7 post-encapsulation, 48 h.
Setting [3] is: 3D + ECM, SUDHL4, D7 post-encapsulation, 48 h.

In brackets after ≈: the same amount, converted by molar mass.

As for `COc1cccc2c1C(=O)c1c(O)c3c(c(O)c1C2=O)C[C@@](O)(C(=O)CO)C[C@@H]3O[C@H]1C[C@H](N)[C@H](O)[C@H](C)O1` [Doxorubicin, doxorubicin], the IC50 (commonly the concentration needed to halve the response being measured) reads like this: (2D (suspension), SUDHL4, 48 h) 0.09 µg/mL (≈ 0.166 µM); under setting [1], 0.4 µg/mL (≈ 0.736 µM); under setting [2], 0.4 µg/mL; under setting [3], 0.4 µg/mL.
`COc1cc([C@@H]2c3cc4c(cc3[C@@H](O[C@@H]3O[C@@H]5CO[C@@H](C)O[C@H]5[C@H](O)[C@H]3O)[C@H]3COC(=O)[C@H]23)OCO4)cc(OC)c1O` [Etoposide, etoposide]: the IC50 runs as follows: (2D (suspension), SUDHL4, 48 h) 3.2 µg/mL (≈ 5.44 µM); under setting [1], 4.4 µg/mL (≈ 7.48 µM); under setting [2], 7 µg/mL; under setting [3], 9.3 µg/mL.
